Experimental data published in US20150291565A1, “INDOLE COMPOUNDS AND THEIR USE AS ANTIMICROBIALS” (Memorial Sloan-Kettering Cancer Center, priority 2012, published 2015).
Where “and” joins values, the source holds several entries; their conditions need not be identical. Identical values can stand only once.

Tests used:
[1] = tested on: S. pneumoniae (ATCC 6303); assay: Thigh infection model in neutropenic CD1 mice, S. pneumoniae; settings: 100 mg/kg BID SC, 24 hours; for Log reduction: vs vehicle, 100 mg/kg
[2] = tested on: S. aureus (MRSA) (ATCC33591); assay: Septicemia survival model in neutropenic CD1 mice, MRSA; assay type: in vivo; settings: 100 mg/kg BID SC
[3] = tested on: methicillin-resistant S. aureus (ATCC 33591); assay: Thigh infection model in neutropenic CD1 mice, MRSA; settings: 100 mg/kg BID SC, 24 hours

## CN[C@H](CC(C)C)C(=O)N[C@H]1C(=O)N[C@@H](CC(N)=O)C(=O)N[C@H]2C(=O)N[C@H]3C(=O)N[C@H](C(=O)N[C@H](C(=O)O)c4cc(O)cc(O)c4-c4cc3ccc4O)[C@H](O)c3ccc(c(Cl)c3)Oc3cc2cc(c3O[C@@H]2O[C@H](CO)[C@@H](O)[C@H](O)[C@H]2O[C@H]2C[C@](C)(N)[C@H](O)[C@H](C)O2)Oc2ccc(cc2Cl)[C@H]1O [Vancomycin, reference compound]
[1]
  Mean bacterial tissue burden (log10/thigh): 3.4862 log10/thigh
  Log reduction: 5.6265 Log
[1]; listed as vancomycin
  Log reduction: 5.63 Log
[2]
  Percent Survival Day 1: 100%
  Percent Survival Day 2: 100%
  Percent Survival Day 3: 100%
  Percent Survival Day 4: 80%
  Percent Survival Day 5: 80%
  Percent Survival Day 6: 80%
  Percent Survival Day 7: 80%
[3]
  Mean bacterial tissue burden (log10/thigh): 5.0033 log10/thigh
[3]; vs vehicle, 100 mg/kg
  Log reduction: 3.45 Log and 3.4455 Log
